These results are taken from ChEMBL document CHEMBL2086285, “Targeting the liver stage of malaria parasites: a yet unmet goal” (J Med Chem, 2012).

One may read the IC50 as the concentration that gives 50% inhibition. Usually inhibition stands for the percentage by which the read-out fell short of the control. The term inhibition in vivo denotes the relative decrease from the control value, in per cent.

For assay [1], the system named is Plasmodium berghei. The experiment in a line: Antimalarial activity against liver stages of Plasmodium berghei […] infected in human Hepa1-6 cells assessed as reduction in liver parasite load at 10 uM/L incubated for 1 hr prior to sporozoite inoculation measured after 46 to 48 hrs by fluorescence microscope. It is filed as functional. More on the design: scale not given: the % may be the effect or the level left.

For assay [2], the system named is Plasmodium yoelii. Kind of assay: Antimalarial activity against Plasmodium yoelii infected in mouse assessed as protection against parasitic infection at 5 mg/kg, po. It is filed as functional.
Assay [3] concerns Plasmodium yoelii yoelii. The experiment in a line: Antimalarial activity against liver stages of Plasmodium yoelii yoelii in mouse hepatocytes assessed as growth inhibition. The format is functional, organism-based. As to conditions: Hepatocyte.
The test system of assay [4] is Plasmodium yoelii. The experiment in a line: Antimalarial activity against Plasmodium yoelii infected in mouse assessed as protection against parasitic infection at 160 mg/kg, po. The format is functional.
Assay [5] concerns Plasmodium yoelii. The experiment in a line: Antimalarial activity against Plasmodium yoelii infected in po dosed mouse assessed as minimum dose required to protection against 100% parasitic infection. The following applies: read-out: MED. The format is functional.
Assay [6] concerns Plasmodium berghei. Kind of assay: Antimalarial activity against Plasmodium berghei ANKA infected in C57BL/6 mouse assessed as increase in resistance of mouse to cerebral malaria at 10 mg/kg, ip. The format is functional. As to conditions: route intraperitoneal.
In assay [7] the test system is Plasmodium berghei. Kind of assay: Antimalarial activity against Plasmodium berghei ANKA infected in human Huh7 cells after 24 hrs by qRT-PCR. The format is functional, organism-based. As to conditions: Huh-7, 24 h. In general terms: Quantitative PCR measures a nucleic acid by following its amplification.
For assay [8], the system named is Plasmodium yoelii. The experiment in a line: Antimalarial activity against liver stages of Plasmodium yoelii 17XNL expressing GFP infected in human HepG2 cells transfected with CD81 assessed as growth inhibition of hepatic parasite after 40 hrs by flow cytometry. It is filed as functional, organism-based. In general terms: A flow cytometer gives signals particle by particle.

The subject of assay [9] is Plasmodium berghei. The experiment in a line: Antimalarial activity against Plasmodium berghei infected in […] 1-6 cells assessed as inhibition of host cell sporozoite invasion at 10 uM preincubated for 10 mins measured after 1 hr. It is filed as functional. The following applies: Hepa1-6.
Assay [10] concerns Plasmodium berghei. Kind of assay: Antimalarial activity against liver stages of Plasmodium berghei assessed as human HepG2 cells assessed as inhibition of hepatic parasite growth after invasion of hepatocytes incubated for 48 hrs followed by compound wash out measured after 2 days by RT-PCR analysis. The format is functional, organism-based.
Assay [11] deals with Plasmodium berghei. Kind of assay: Antimalarial activity against liver stages of Plasmodium berghei infected in human HepG2 cells assessed as growth inhibition of hepatic parasite before invasion of hepatocytes incubated for 48 hrs followed by compound wash out measured after 3 days by RT-PCR analysis. It is filed as functional, organism-based.
Assay [12] relates to Plasmodium berghei. The experiment in a line: Antimalarial activity against liver stages of Plasmodium berghei assessed as inhibition of cytochrome bc1 complex. It is filed as functional, organism-based.
The test system of assay [13] is Plasmodium falciparum. Kind of assay: Antimalarial activity against liver stages of Plasmodium falciparum NF54 infected in human HepG2-A16 cells expressing CD81 assessed as growth inhibition of hepatic parasite after 5 days by fluorescence microscopy. It is filed as functional, organism-based. As to conditions: NF54, HepG2A16, Liver, 120 h.
Assay [14] relates to Plasmodium berghei. The experiment in a line: Antimalarial activity against liver stages of Plasmodium berghei in human HepG2 cells assessed as inhibition of exoerythrocytic development at 1.85 nM administered 3 hrs after sporozite invasion measured after 48 hrs. The format is functional.
Assay [15] relates to Plasmodium yoelii. The experiment in a line: Antimalarial activity against Plasmodium yoelii infected in CD-1 mouse assessed as efficacy at 160 mg/kg, po after 2 hrs. It is filed as functional.
Another assay concerns Plasmodium vivax. Kind of assay: Antimalarial activity against Plasmodium vivax assessed as effect on cure rate after 28 days. The format is functional.
The subject of assay [16] is Plasmodium yoelii. The experiment in a line: Antimalarial activity against Plasmodium yoelii infected in CD-1 mouse assessed as efficacy at 160 mg/kg, ip. It is filed as functional. The following applies: route intraperitoneal.
The test system of assay [17] is Plasmodium yoelii. Kind of assay: Antimalarial activity against Plasmodium yoelii infected in CD-1 mouse assessed as efficacy at 40 mg/kg, po after 2 hrs. The format is functional.
Assay [18] deals with Plasmodium yoelii. The experiment in a line: Antimalarial activity against Plasmodium yoelii infected in CD-1 mouse assessed as efficacy at 40 mg/kg, ip. The format is functional. The following applies: route intraperitoneal.
Assay [19] concerns Plasmodium yoelii. Kind of assay: Antimalarial activity against liver stages of Plasmodium yoelii assessed as inhibition of cytochrome bc1 complex. The format is functional, organism-based.
Assay [20] concerns Plasmodium yoelii. The experiment in a line: Antimalarial activity against liver stages of Plasmodium yoelii infected in mouse assessed as protection against parasitic infection at 50 mg/kg, po after 7 days. The format is functional.
Assay [21] deals with Plasmodium yoelii. Kind of assay: Antimalarial activity against liver stages of Plasmodium yoelii after 96 hrs. The format is functional, organism-based.
Assay [22] has as its system Plasmodium yoelii. Kind of assay: Antimalarial activity against liver stages of Plasmodium yoelii after 96 hrs.
In assay [23] the test system is Plasmodium berghei. The experiment in a line: Antimalarial activity against Plasmodium berghei ANKA expressing GFP infected in C57BL/6 mouse assessed as reduction of liver infection at 200 mg/kg, po incubated for 6 hrs prior to sporozoite inoculation measured after 40 hrs by qRT PCR. More on the design: scale not given: the % may be the effect or the level left.
For assay [24], the system named is Plasmodium berghei. Kind of assay: Antimalarial activity against liver stages of Plasmodium berghei. The format is functional, organism-based.
For assay [25], the system named is Plasmodium falciparum. The experiment in a line: Antimalarial activity against liver stages of Plasmodium falciparum NF54 in mouse after 72 to 120 hrs by immunofluorescence assay. The format is functional, organism-based.
Assay [26] has as its system Plasmodium yoelii yoelii. The experiment in a line: Antimalarial activity against liver stages of Plasmodium yoelii yoelii 265 BY infected in mouse after 48 hrs by immunofluorescence assay. It is filed as functional, organism-based.
For assay [27], the system named is Plasmodium yoelii. Kind of assay: Antimalarial activity against liver stages of Plasmodium yoelii 17XNL infected in Swiss Webster mouse assessed as reduction in liver parasite load at 25 mg/kg, po co-administered with 12.5 mg/kg ritonavir incubated for 6 hrs prior to sporozoite inoculation measured after 18 hrs. Further details: scale not given: the % may be the effect or the level left. It is filed as functional.

For assay [28], the system named is Plasmodium yoelii. Kind of assay: Antimalarial activity against liver stages of Plasmodium yoelii 17XNL infected in Swiss Webster mouse assessed as reduction in liver parasite load at 100 mg/kg, po co-administered with 50 mg/kg ritonavir incubated for 6 hrs prior to sporozoite inoculation measured after 18 hrs. The format is functional. More on the design: scale not given: the % may be the effect or the level left.

The next assay relates to Plasmodium cynomolgi. Kind of assay: Antimalarial activity against liver stages of Plasmodium cynomolgi infected in human HepG2 cells assessed as growth inhibition of hepatic parasite after 3 days. It is filed as functional, organism-based. The following applies: 72 h.
The test system of assay [29] is Plasmodium falciparum. Kind of assay: Antimalarial activity against liver stages of Plasmodium falciparum NF54 infected in human hepatocytes assessed as growth inhibition of hepatic parasite after 5 days by fluorescence microscopy. The format is functional, organism-based. The following applies: NF54, Hepatocyte, 120 h.

The structures appear in SMILES notation.

As to `CC(C)(C)NC(=O)[C@@H]1C[C@@H]2CCCC[C@@H]2CN1C[C@@H](O)[C@H](Cc1ccccc1)NC(=O)[C@H](CC(N)=O)NC(=O)c1ccc2ccccc2n1`, the Activity in the assay on Plasmodium berghei [1] was 55%.

Consider `CC(C)COC(=O)N/C(=N/C(C)C)NC1=NC(=O)C(=O)N1c1ccc(Cl)c(Cl)c1`, for which, in the assay with Plasmodium yoelii [2], the Activity stood at 100%.

`NCCCCN(CCCN)C(=O)CCCCCCCCCCCOCc1ccc2c(c1)[C@@H]1C[C@]3(CCCCO3)NC3=N[C@]4(CCCCO4)C[C@H]2N31`: the IC50 with Plasmodium yoelii yoelii [3] stood at 9.2 µM.

As for `CC(C)COC(=O)/N=C(\NC1=NC(=O)C(=O)N1C(C)C)Nc1ccc(Cl)c(Cl)c1`, in the assay with Plasmodium yoelii [4], the Activity came to 100%. Besides, in the assay on Plasmodium yoelii [5], the minimal effective dose worked out at 40 mg/kg.

Regarding `C[C@H](NC(=O)[C@@H](O)c1cc(F)cc(F)c1)C(=O)N[C@@H]1C(=O)N(C)c2ccccc2-c2ccccc21`, the Activity with Plasmodium berghei [6] is given as 55%. Moreover, the IC50 with Plasmodium berghei [7] stood at 80 µM.

For `C=CCS[S+]([O-])CC=C` (configuration not stated) [ALLICIN], the figures for the IC50 in the assay on Plasmodium yoelii [8], in the assay with Plasmodium berghei [10] and with Plasmodium berghei [11] were 40 µM, 39.4 µM and 6.8 µM, respectively. Further, the inhibition at 10 µM in the assay on Plasmodium berghei [9] was determined as 37%.

`O=C1C(O)=C([C@H]2CC[C@H](c3ccc(Cl)cc3)CC2)C(=O)c2ccccc21` [ATOVAQUONE]: the values for the IC50 in the assay on Plasmodium berghei [12] and with Plasmodium falciparum [13] were 19.7 nM and 3.95 nM, respectively. For the same compound, the inhibition in vivo at 0.00185 µM in the assay with Plasmodium berghei [14] came out at 50%.

As to `CC[C@H]1OC(=O)[C@H](C)[C@@H](O[C@H]2C[C@@](C)(OC)[C@@H](O)[C@H](C)O2)[C@H](C)[C@@H](O[C@@H]2O[C@H](C)C[C@H](N(C)C)[C@H]2O)[C@](C)(O)C[C@@H](C)CN(C)[C@H](C)[C@@H](O)[C@]1(C)O` [AZITHROMYCIN], the Efficacy was found to be 100% with Plasmodium yoelii [15], 100% in the assay with Plasmodium yoelii [16], 40% with Plasmodium yoelii [17] and 80% with Plasmodium yoelii [18]. In addition, the Activity with Plasmodium vivax is on record as 58%.

With `CCCCCCCCCCOc1cc2c(O)c(C(=O)OCC)cnc2cc1OCC` [DECOQUINATE], in the assay on Plasmodium yoelii [19], the IC50 is 0.177 nM. Besides, in the assay on Plasmodium yoelii [20], the Activity is recorded as 80%.

As to `C[C@@H](CN1CC(=O)NC(=O)C1)N1CC(=O)NC(=O)C1` [DEXRAZOXANE], the INH with Plasmodium yoelii [21] and in the assay on Plasmodium yoelii [22] was 50 µM each time.

As to `O=c1c(-c2ccc(O)cc2)coc2cc(O)cc(O)c12` [GENISTEIN], the Activity in the assay with Plasmodium berghei [23] is 64%. In the assay with Plasmodium berghei [24], the half-maximal inhibitory concentration (IC50) amounted to 20 µM.

Turning to `Cc1c(F)c(N2CCNC(C)C2)cc2c1c(=O)c(C(=O)O)cn2C1CC1` (configuration not stated) [GREPAFLOXACIN], the half-maximal inhibitory concentration (IC50) with Plasmodium falciparum [25] and with Plasmodium yoelii yoelii [26] was 10 µM throughout.

`Cc1cccc(C)c1OCC(=O)N[C@@H](Cc1ccccc1)[C@@H](O)C[C@H](Cc1ccccc1)NC(=O)[C@H](C(C)C)N1CCCNC1=O` [LOPINAVIR]: the Activity in the assay with Plasmodium yoelii [27] was 45%; in the assay with Plasmodium berghei [1], 38%; in the assay with Plasmodium yoelii [28] it was 93%.

Consider `CCc1nc(N)nc(N)c1-c1ccc(Cl)cc1` [PYRIMETHAMINE], for which, in the assay on Plasmodium cynomolgi, the IC50 is 1030 nM.

As to `COC1=C2[C@H]3NCC[C@]2(C[C@H](O)[C@@H]1O)c1c(ccc(OC)c1O)[C@H]3O` [TAZOPSINE], in the assay with Plasmodium falciparum [29], the half-maximal inhibitory concentration (IC50) was 4.2 µM.
